# Where two headings read alike, the source gives them in different places.
# Assays:
# [1] = test system: Candida albicans (ATCC no. 90028); experiment: Agar diffusion assay; type: cell-based; design: key: +: Normal growth, no inhibition of growth observed; −: Inhibited fungal growth, zone of inhibition is observed
# Protocol: (§1) In additional experiments, the anti-fungal activity of recombinant human chitinase (produced in COS cells as described in Example 5A) was evaluated in an agar diffusion assay, in a broth assay according to National Committee on Clinical Laboratory Standards, and in a cell wall inhibition assay according to Selitrennikoff, Antimicrob. Agents Chemother., 23:757-765 (1983).
# In the agar diffusion assay, approximately 1×10^6 cells/ml of Candida albicans (ATCC no. 90028) inoculated into 1.5% agar (RPMI 1640 media buffered with […] (MOPS), pH 7.0. A disk containing 50 μg of the sample (A: recombinant human chitinase, B: buffer control, C: control protein, D: a bacterial lysate with chitinase activity, or a known anti-fungal agent) was placed on the agar, and the zone of growth inhibition was measured. Results are shown in Table 1 below.
# Aspergillus fumigatus = experiment: Agar diffusion assay; type: cell-based; design: key: +: Normal growth, no inhibition of growth observed; −: Inhibited fungal growth, zone of inhibition is observed
# [2] = test system: os-1 cell, mutant strain of Neurospora crassa (protoplasts); experiment: os-1 whole cell assay (fungal cell wall biosynthesis inhibition); type: cell-based; design: key to Cell Wall Regenertion: +: Normal cell-wall regeneration; −: Inhibited cell-wall regeneration; key to Cell Growth: +: Normal growth, no inhibition of growth observed; −: Inhibited fungal growth, zone of inhibition is observed
# Protocol: as §1
# The os-1 whole cell assay, which identifies inhibitors of fungal cell wall biosynthesis, was conducted essentially according to Selitrennikoff, supra, using an inoculum of 1.5×10^5 protoplasts/ml embedded in agar (Vogel's Medium N, 7.5% sorbitol, 1.5 % sucrose, 10 μg/ml nicotiniamide and 1 % agar) incubated at 25° C. for 72 hours. The cultures were monitored for changes in growth and morphology after disks containing 50 μg of the sample (A: recombinant human chitinase, B: buffer control, C: control protein, D: a bacterial lysate with chitinase activity, or a known anti-fungal agent) were placed on the agar medium. The os-1 cell is a mutant strain of Neurospora crassa that grows as protoplasts without cell walls when incubated under certain conditions at 37° C., but regenerates a cell wall under the appropriate conditions when the temperature is shifted to about 22° C.
# [3] = test system: Saccharomyces cerevisiae (ATCC no. 26108); experiment: Broth assay; type: cell-based; design: key to IC50: 0: No fungal growth; 1: growth is 25% of control; 2: growth is 50% of control; 3: growth is 75% of control; 4: growth equivalent to control; 5: growth is greater than control; conditions: for IC50: lowest concentration inhibiting growth by at least 50%
# Protocol: as §1
# (§2) In the broth assay, 50 μg/ml of the sample (A: recombinant human chitinase, B: buffer control, C: control protein, D: a bacterial lysate with chitinase activity, or a known anti-fungal agent) was added with a certain concentration of the test fungal organism to RPMI 1640 media buffered with MOPS, pH 7.0. The samples were incubated at 35° C., with shaking at 120 rpm, for 48 hours, and then growth was evaluated by measuring the turbidity of the suspension. The approximate concentrations of the test fungi were as follows: 2.5×10^4 cells/ml of Candida albicans (ATCC no. 90028); 5×10^4 cells/ml of Candida albicans-polyene resistant (ATCC no. 38247); 1 x 10^4 cells/ml of Aspergillus fumigatus (ATCC no. 16424); 1×10^4 cells/ml of Neurospora crassa (ATCC no. 18889); and 1×10^4 cells/ml of Saccharomyces cerevisiae (ATCC no. 26108).
# [4] = test system: Candida albicans (ATCC no. 90028); experiment: Broth assay; type: cell-based; conditions: for IC50: lowest concentration inhibiting growth by at least 50%
# Protocol: as §1, §2
# [5] = test system: Candida albicans-polyene resistant (ATCC no. 38247); experiment: Broth assay; type: cell-based; conditions: for IC50: Candida, ATCC38247, lowest concentration inhibiting growth by at least 50%
# Protocol: as §1, §2
# [6] = test system: Aspergillus fumigatus (ATCC no. 16424); experiment: Broth assay; type: cell-based
# Protocol: as §1, §2
# [7] = test system: Neurospora crassa (ATCC no. 18889); experiment: Broth assay; type: cell-based; design: key to Neurospora crassa Growth: 0: No fungal growth; 1: growth is 25% of control; 2: growth is 50% of control; 3: growth is 75% of control; 4: growth equivalent to control; 5: growth is greater than control; conditions: for IC50: Neurospora crassa, ATCC18889, lowest concentration inhibiting growth by at least 50%
# Protocol: as §1, §2
# Candida albicans = experiment: Preliminary in vitro fungal growth inhibition (turbidity of cultures); type: cell-based; conditions: 0, 2.8, 11.25, or 45 μg/ml; 24 hours; 10,000-50,000 CFU per ml
# Protocol: (§3) In a preliminary experiment, recombinant human chitinase was tested for inhibition of fungal growth in vitro. The two fungi Candida albicans and Aspergillus fumigatis are serious pathogens for immunocompromised patients. Both Candida and Aspergillus were grown in RPMI growth media at 37° C. to approximately 10,000-50,000 colony forming units (CFU) per ml. Recombinant human chitinase (produced in COS cells as described in Example 5A) was added to cultures at 0, 2.8, 11.25, or 45 μg/ml. After 24 hours, fungal growth was assessed by turbidity of cultures. […] The concentration of fungi tested, however, is much higher than the fungal burden seen during fungal infection in vivo. Different results may be obtained under different conditions, e.g., with a lower fungal burden, or when human chitinase is tested in combination with other anti-fungal agents.
# Aspergillus fumigatis = experiment: as above; type: cell-based; conditions: 0, 2.8, 11.25, or 45 μg/ml; 24 hours; 10,000-50,000 CFU per ml
# Protocol: as §3
# test fungal organism = experiment: Broth assay, overall conclusion; type: cell-based
# Protocol: as §2
# [8] = design: species or system Female Balb/c mice; conditions: mouse, in vivo, iv
# Protocol: The pharmacokinetics of recombinant human chitinase in mice were determined as follows. Female Balb/c mice, 6-8 weeks old, were injected intravenously in the tail vein with 0.5 mg/kg, 5.0 mg/kg and 50 mg/kg recombinant human chitinase. For each dose, mice were terminally bled at 0.01, 0.25, 1, 8 and 24 hours after injection (2 animals were used per time point per dosage). Serum samples were then assayed for chitinase activity and concentration.
# [9] = Chitotriosidase (chitinase) catalytic activity, fluorogenic substrate; type: biochemical
# Protocol: Chitotriosidase (chitinase) activity was measured using the fluorogenic substrate 4-methylumbelliferyl-β-D-N,N′,N″-triacetylchitotriose (4 MU-chitotrioside, Sigma Chemical, St. Louis, Mo.) in McIlvain buffer (Hollak et al., supra). Ten μl samples of the recombinant product were combined with 10 itl bovine serum albumin (10 mg/ml), 15 μl fluorogenic substrate (2.71 mM), and 65 μl buffer (0.1M citric acid, 0.2M sodium phosphate, pH 5.2) in a total volume of 100 μl. Reactions were incubated at 37° C. for 15 minutes, then the reaction was stopped with the addition of 2 ml of 0.3M glycine/NaOH buffer (pH 10.6). The fluorescent cleavage product, 4-methylumbelliferone, was monitored with a fluorimeter (SLM-AMINCO Instruments, Inc., Rochester, N.Y.) at 450 nm. […] The known quantity of 4-MU was then correlated to the fluorescence signal from the fluorimeter and linear regression was used to determine a standard curve. The signal produced with diluted purified recombinant chitinase in the assay was then used to interpolate the nm quantity of substrate cleaved by the enzyme during the reaction time. This number was then divided by the concentration of protein to obtain the nm/min per mg protein (determined by A280 and calculated molar extinction coefficient).
# [10] = test system: os-1 cell, mutant strain of Neurospora crassa (protoplasts); experiment: os-1 whole cell assay (fungal cell wall biosynthesis inhibition); type: cell-based; design: key to Cell Wall Regenertion: +: Normal cell-wall regeneration; −: Inhibited cell-wall regeneration; key to Cell Growth: +: Normal growth, no inhibition of growth observed; −: Inhibited fungal growth, zone of inhibition is observed; conditions: 25° C., 72 hours
# [11] = 50 μg/ml, 35° C., 48 hours, turbidity score
# [12] = lowest concentration inhibiting growth by at least 90%
molecule,measurement,setting,value
"A: rH-Chitinase: Recombinant human chitinase (full length, pRc/CMV-MO-13B, SEQ ID NO: 4) produced in COS cells according to Example 5A",Candida albicans Growth,[1]; 50 μg/disk,+
same,Aspergillus fumigatus Growth,Aspergillus fumigatus; 50 μg/disk,+
same,conclusion in the os-1 whole cell assay (in words),[2],cell wall specific inhibitor
same,Cell Growth,"[2]; 50 μg/disk, 25° C., 72 hours",+
same,Cell Wall Regenertion,"[2]; 50 μg/disk, 25° C., 72 hours",−
same,Morphology,"[2]; 50 μg/disk, 25° C., 72 hours",protoplasts
same,Radial measurements of inhibited cell-wall regeneration from center of disk,"[2]; 50 μg/disk, 25° C., 72 hours",10 mm^d
same,Saccharomyes cerevisiae Growth,[3]; [11],2 (growth is 50% of control)
same,Candida albicans Growth,[4]; [11],2 (growth is 50% of control)
same,C. albicans-polyene resistant Growth,[5]; [11],2 (growth is 50% of control)
same,Aspergillus fumigatus Growth,[6]; [11],3 (growth is 75% of control)
same,Neurospora crassa Growth,[7]; [11],4
same,fungal growth assessed by turbidity of cultures,Candida albicans,"comparable rates, independent of chitinase concentration"
same,fungal growth assessed by turbidity of cultures,Aspergillus fumigatis,"comparable rates, independent of chitinase concentration"
same,conclusion in the broth assay (in words),test fungal organism,mildly anti-fungal
same,MRT (total body mean residence time),[8]; 0.5 mg/kg,45 min
same,MRT (total body mean residence time),[8]; 5 mg/kg,45.6 min
same,MRT (total body mean residence time),[8]; 50 mg/kg,159 min
same,chitotriosidase activity,"[9]; purified protein produced in COS cells, 37° C., 15 minutes, pH 5.2",90 nm/min per mg protein
Nc1nc(=O)[nH]cc1F [5-fluorocytosine],IC50,"[3]; Saccharomyces cerevisiae, ATCC26108, read-out: IC50",0.125 µg/mL
same,IC50,[4],2 μg/ml (growth is 50% of control)
same,IC50,[5],0.06 µg/mL
same,IC50,"[6]; Aspergillus fumigatus, ATCC16424, lowest concentration inhibiting growth by at least 50%",16 µg/mL
same,IC50,[7],> 64 µg/mL
OC(Cn1cncn1)(Cn1cncn1)c1ccc(F)cc1F [fluconazole],IC50,[3],4 µg/mL
same,IC50,"[4]; Candida albicans, ATCC90028, read-out: IC50",0.5 µg/mL
same,IC50,[5],16 µg/mL
same,IC50,[7],8 µg/mL
C[C@@H]1[C@H](O)[C@@H](C)/C=C/C=C/C=C/C=C/C=C/C=C/C=C/[C@H](O[C@@H]2O[C@H](C)[C@@H](O)[C@H](N)[C@@H]2O)C[C@@H]2O[C@](O)(C[C@@H](O)C[C@@H](O)[C@H](O)CC[C@@H](O)C[C@@H](O)CC(=O)O[C@H]1C)C[C@H](O)[C@H]2C(=O)O [amphotericin B],Candida albicans Growth,[1]; 400 ng/disk,−
same,Aspergillus fumigatus Growth,Aspergillus fumigatus; 400 ng/disk,−
same,IC90,[4]; [12],0.5 µg/mL
same,IC90,[5]; [12],>16 µg/mL
same,IC90,[6]; [12],2 μg/ml (growth is 50% of control)
same,IC90,[7]; [12],0.5 µg/mL
same,Cell Growth,[10]; 400 ng/disk,−
same,Cell Wall Regenertion,[10]; 400 ng/disk,+
same,Morphology,[10]; 400 ng/disk,cell debris
same,Radial measurement of inhibited growth from center of disk,[10]; 400 ng/disk,10 mm^e
C[C@@H]([C@H](N)C(=O)N[C@H](C(=O)O)[C@H]1O[C@@H](n2ccc(=O)[nH]c2=O)[C@H](O)[C@@H]1O)[C@H](O)c1ccc(O)cn1 [nikkomycin Z],Cell Growth,[10]; 1 μg/disk,+
same,Cell Wall Regenertion,[10]; 1 μg/disk,−
same,Morphology,[10]; 1 μg/disk,protoplasts
same,Radial measurements of inhibited cell-wall regeneration from center of disk,[10]; 1 μg/disk,30 mm^d
recombinant product: C-terminal truncated human chitinase analog (serine at position 370) expressed in E. coli from the Ara-chitinase plasmid at 25° C.,chitinase catalytic activity,"[9]; E. coli transformants grown at 25° C., in words",exhibited chitinase catalytic activity
